From ChEMBL document CHEMBL1132209, “Design, synthesis, and activity of 2,6-diphenoxypyridine-derived factor Xa inhibitors” (J Med Chem, 1999)

Assays:
Prothrombin = Prothrombin (Homo sapiens, UniProt P00734); assay: Compound was tested for inhibition activity against human thrombin (FIIa)
Serine protease 1 = biological target: T1, Serine protease 1 (Bos taurus, UniProt P00760); assay: Compound was tested for inhibition activity against bovine trypsin.
T1 sequence (P00760 whole entry): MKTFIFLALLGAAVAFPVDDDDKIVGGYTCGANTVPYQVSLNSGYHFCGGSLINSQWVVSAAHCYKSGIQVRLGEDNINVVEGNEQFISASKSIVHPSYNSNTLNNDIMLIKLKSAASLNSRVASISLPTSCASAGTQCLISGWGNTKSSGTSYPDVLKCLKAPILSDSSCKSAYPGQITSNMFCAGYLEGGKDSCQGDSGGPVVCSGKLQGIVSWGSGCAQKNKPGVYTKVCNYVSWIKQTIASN

Coagulation factor X = Coagulation factor X (Homo sapiens, UniProt P00742); assay: Compound was tested for inhibition activity against Coagulation factor X
Chain of Coagulation factor X (P00742 41-179 limits assumed): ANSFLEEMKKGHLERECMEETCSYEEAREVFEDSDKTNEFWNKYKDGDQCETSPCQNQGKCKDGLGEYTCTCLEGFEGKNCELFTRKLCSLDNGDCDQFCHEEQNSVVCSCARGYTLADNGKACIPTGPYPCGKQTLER
Chain of Coagulation factor X (P00742 235-488 limits assumed): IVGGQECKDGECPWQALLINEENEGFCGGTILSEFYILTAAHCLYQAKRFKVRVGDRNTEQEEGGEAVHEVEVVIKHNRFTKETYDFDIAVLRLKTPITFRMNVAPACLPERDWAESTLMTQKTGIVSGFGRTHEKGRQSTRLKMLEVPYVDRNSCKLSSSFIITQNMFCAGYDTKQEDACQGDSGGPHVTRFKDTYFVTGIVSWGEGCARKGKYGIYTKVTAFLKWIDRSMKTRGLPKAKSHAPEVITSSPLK

| SMILES | Ki (Prothrombin) | Ki (Serine protease 1) | Ki (Coagulation factor X) |
| --- | --- | --- | --- |
| N=C(N)c1cccc(Oc2ccc(NC(=O)c3ccccc3)c(Oc3cccc(C(=N)N)c3)n2)c1 | 3400 nM | 260 nM | 120 nM |
| CNC(=O)c1ccc(Oc2cccc(C(=N)N)c2)nc1Oc1cccc(C(=N)N)c1 | > 5000 nM | 1400 nM | 230 nM |
| N=C(N)c1cccc(Oc2cc(C(N)=O)cc(Oc3cccc(C(=N)N)c3)n2)c1 | 6000 nM | 780 nM | 42 nM |
| N=C(N)c1cccc(Oc2ccc(NC(=O)NCC(N)=O)c(Oc3cccc(C(=N)N)c3)n2)c1 | > 5000 nM | 280 nM | 110 nM |
| N=C(N)c1cccc(Oc2ccc(NC(=O)Nc3ccccc3)c(Oc3cccc(C(=N)N)c3)n2)c1 | 3400 nM | 100 nM | 62 nM |
| N=C(N)c1cccc(Oc2ccnc(Oc3cccc(C(=N)N)c3)n2)c1 | > 5000 nM | 760 nM | 120 nM |
| N=C(N)c1cccc(Oc2cncc(Oc3cccc(C(=N)N)c3)n2)c1 | > 5000 nM | 970 nM | 51 nM |
| N=C(N)c1cccc(Oc2ccc(C(=O)O)c(Oc3cccc(C(=N)N)c3)n2)c1 | > 100000 nM | 2200 nM | 95 nM |
| N=C(N)c1cccc(Oc2ccc(N)c(Oc3cccc(C(=N)N)c3)n2)c1 | > 5000 nM | 1300 nM | 53 nM |
| N=C(N)c1ccccc1Oc1cccc(Oc2ccccc2C(=N)N)n1 | – | – | > 5000 nM |
| CCOC(=O)c1ccc(Oc2cccc(C(=N)N)c2)nc1Oc1cccc(C(=N)N)c1 | > 5000 nM | 920 nM | 190 nM |
| N=C(N)c1ccc(Oc2cccc(Oc3ccc(C(=N)N)cc3)c2)cc1 | 4900 nM | 1000 nM | 970 nM |
| N=C(N)c1cccc(Oc2ccc(C(N)=O)c(Oc3cccc(C(=N)N)c3)n2)c1 | > 5000 nM | 1200 nM | 600 nM |
| N=C(N)c1ccc(/C=C2\CCCC/C(=C\c3ccc(C(=N)N)cc3)C2=O)cc1 | 530 nM | 33 nM | 0.66 nM |
| CNC(=O)c1cc(Oc2cccc(C(=N)N)c2)nc(Oc2cccc(C(=N)N)c2)c1 | 4200 nM | 750 nM | 60 nM |
| CS(=O)(=O)Nc1ccc(Oc2cccc(C(=N)N)c2)nc1Oc1cccc(C(=N)N)c1 | > 5000 nM | 1900 nM | 130 nM |

| SMILES | Ki (Prothrombin) | Ki (Serine protease 1) | Ki (Coagulation factor X) |
| --- | --- | --- | --- |
| N=C(N)c1ccc(Oc2cc(Oc3ccc(C(=N)N)cc3)c(Cl)cc2Cl)cc1 | 2500 nM | 1800 nM | 1100 nM |
| CCOC(=O)c1cc(Oc2cccc(C(=N)N)c2)nc(Oc2cccc(C(=N)N)c2)c1 | 11000 nM | 800 nM | 34 nM |
| COc1c(F)c(Oc2cccc(C(=N)N)c2)nc(Oc2cccc(C(=N)N)c2)c1F | > 5000 nM | 1100 nM | 23 nM |
| CC(=O)Nc1ccc(Oc2cccc(C(=N)N)c2)nc1Oc1cccc(C(=N)N)c1 | > 5000 nM | 1200 nM | 52 nM |
| N=C(N)c1cccc(Oc2ccc(C(=O)NCC(N)=O)c(Oc3cccc(C(=N)N)c3)n2)c1 | > 5000 nM | 2000 nM | 690 nM |
| N=C(N)c1cccc(Oc2cc(Oc3ccccc3C(=N)N)ccc2N)c1 | – | – | 1100 nM |
| Cc1c(F)c(N(C)c2cccc(C(=N)N)c2)nc(N(C)c2cccc(C(=N)N)c2)c1F | 360 nM | 360 nM | 98 nM |
| N=C(N)c1cccc(Oc2ccc(C(F)(F)F)c(Oc3cccc(C(=N)N)c3)n2)c1 | > 5000 nM | 780 nM | 110 nM |
| Cc1c(F)c(Nc2cccc(C(=N)N)c2)nc(Oc2cccc(C(=N)N)c2)c1F | > 5000 nM | 3100 nM | 660 nM |
| N=C(N)c1cccc(Oc2c[nH]c(=O)c(Oc3cccc(C(=N)N)c3)n2)c1 | > 5000 nM | 760 nM | 190 nM |
| N=C(N)c1cccc(Oc2cc(Oc3ccccc3C(=N)N)ccc2[N+](=O)[O-])c1 | – | – | 300 nM |
| CNC(=O)Nc1ccc(Oc2cccc(C(=N)N)c2)nc1Oc1cccc(C(=N)N)c1 | > 5000 nM | 840 nM | 59 nM |
| N=C(N)c1ccc(Oc2cccc(Oc3ccccc3C(=N)N)n2)cc1 | 1200 nM | 1900 nM | 130 nM |
| Cc1c(F)c(Oc2cccc(C(=N)N)c2)nc(N(C)c2cccc(C(=N)N)c2)c1F | 1900 nM | 690 nM | 12 nM |
| CN(C)C(=O)c1ccc(Oc2cccc(C(=N)N)c2)nc1Oc1cccc(C(=N)N)c1 | > 5000 nM | 780 nM | 32 nM |
